The test system of one series is infant female rats. Kind of series: Super-ovulation induced in infant female rats. Format: in vivo. To be noted: out of 60 21-day old rats; i.p., 1-8 days, 1 or 2 μg daily or twice daily, finished with 5 or 10 μg. Here is the method:
60 pieces of 21-day old infant rats weighing […] were treated with D-Phe^6 -Gln^8 -GnRH in normal saline solution intraperitoneally. The animals, depending on the treatment they were having, were placed into different groups. In the series of treatments lasting 1-8 days, 1 and 2 μg doses, respectively, were administered daily and twice daily. Treatments were finished with 5 and 10 μg doses, respectively.
After treatment all animals were killed with vapour of ether and their ovaries were removed after the animals died and 24 hours after the last treatment. Evaluation was done visually and from hystological samples. We found several developing follicles in the ovaries of the control animals, but not one of them was of Graf-follicle size, and neither corpur luteum, nor corpus haemorrhagicum could be detected. On the other hand, in all treated groups hormonal effect could be seen which made itself evident by the growing of follicles, by their turning into Graf-follicles, by their ovulation and the forming of regular corpus luteum. Enlarging of the oviduct and the uterus was also evident. […] In the group that received for 4 days 2 μg of GnRH analogue twice daily and on the 4th day the 2 μg treatment was followed by a 10 μg dose, in the ovary of all animals immediately before ovulation softened Graf follicles could be observed in large numbers. […]

A further series has as its system infant domestic rabbits. The series can be described thus: Inducing super-ovulation in infant domestic rabbits. It is filed as in vivo, rabbit. To be noted: 5 μg twice daily 3 days i.p., 50 μg on 4th day, after 26 hours; 42-day old rabbits. Here is the method:
20 42-day old rabbit whelps of the white pearl variety reared under large scale farming conditions were administered twice daily for three days 5 μg of D-Phe^6, Gln^8 -GnRH analogue intraperitoneally. Then the animals were divided into two groups and the one half of them was treated with 50 μg of active ingredient on the 4th day while the other half was killed with vapour of ether before treatment began. Developed follicles of this group were counted and used as control in determining the effect of the 50 μg dose. From the group kept alive, two animals were selected and through laparoscope probing their ovulation process was monitored for 10 hours while the animals were kept under narcosis (abdominal cavity was mirrored).

In the next series the test system is infant female pigs. The series can be described thus: Inducing super-ovulation in infant pigs. Format: in vivo. To be noted: 10 μg twice daily 6 days i.m., 100 μg on 7th day, after 41 hours; 100-day old pigs. Here is the method: 20 100-day old infant female pigs were treated for 6 days, twice daily, with 10 μg doses each consisting of D-Phe^6 -Gln^8 -GnRH analogue administered intramuscularly. In the test half side of the ovaries in the control animals was removed and, by using the test method detailed in Example 3, the number of the Graf-follicles and of corpora lutea formed was compared. Occurrence of ovulation was detected by laparoscopy. […] Treatment of these animals produced similar results as described in Examples 1 to 3.

For another series, the system named is female lion. It is filed as in vivo. Here is the method: In our process an intact, fertile female lion belonging to a Zoo was treated, a lioness of 200 kg body weight, which has given litter five times in its life already. Treatments took place twice in every 3 weeks, using D-[…], […] -GnRH analogue. Treatment was timed in such a way that a 50 μg dose was follwed by a 500 μg dose, than a 3-week pause followed. Treatment was carried out with the already mentioned three weeks interval from commencement of oestrus (month of April) until 50 days following end of oestrus typical of the species (August).

The next series relates to potential breeding sows. Kind of series: Inducing first successful rutting of female piglets in puberty. Format: in vivo, pigs. To be noted: treated group of 30. Here is the method:
For our tests 60 potential breeding sows were selected from a stock of 200 sows available at the farm, on the basis of best growing vigor and feed conversion determined by industrial technology. These animals were put into 2 random groups of 30 each. Both groups, also according to industrial technology, were kept without food and drink for 24 hours. Animals at time of selection were injected intramuscularly with D-Phe^6, Gln^8 -GnRH analogue diluted in normal saline solution, then injections were repeated with 20 μg doses each from the same analogue twice with 24 hours intervals. The first rutting animal appeared 5 days after selection both in the untreated control group and in the treated group. Both groups were kept in the same sty, air-space, under similar conditions for 26 days as permitted in the industrial farming technology. During this time 3 animals (10%) from the untreated control and 21 animals (70%) from the treated stock rutted successfully. […] In this test series exact timing of ovulation was not amongst aims since only a few boars were available. For this reason, aim of the treatment was "the first successful rutting" within 26 days. 10% of the sows in farrow was a result acceptable to industrial farming average, thus the increase to 70% as a result of treatment means a very significant economic advantage.

The subject of another series is barren chinchillas. The series can be described thus: Treatment of chinchilla barren for prolonged time. Format: in vivo. Here is the method: Twenty chinchillas barren for at least two years were treated twice daily for three days with 10 μg each of D-Phe^6, Gln^8 -GnRH analogue through intraperitoneal injection. On the 4th day the animals were injected with 75 μg of GnRH analogue, then they were put together with the male. 12 of the Chinchillas gave birth within 4 months. Parallel with the above treatment, 3 animals barren for more than 2 years having very valuable fur as "black" mutant chinchillas were treated twice daily for three days with 10 μg each of D-Phe^6, Gln^8 -GnRH analogue, administered through peritoneal injection. The animals were injected on the 4th day with 75 μg of GnRH analogue, then, as customary, were put together with the male.

In series [1] the test system is ovary of infant domestic cat. Kind of series: Stimulating function of ovary in infant domestic cat (D-Phe6,Gln8-GnRH). Format: in vivo, Felis cattus domesticus. To be noted: 100 μg i.m. every second day, 4 times; 45 days old kittens. Here is the method:
5 kittens each weighing 0.3 kg and being 45 days old were treated with D-Phe^6, Gln^8 -GnRH analogue every second day, altogether 4 times, using 100 μg each of the active ingredient. It was intramuscularly administered after dilution in normal saline solution. Following treatment, ovaries of both sides were removed from the animals under narcosis and visual examination took place. Thereafter the ovaries were fixed in formalin, and then hystological test was carried out. […] Under incrustation developing follicles were found, well definable from the bright, butter-coloured ovary. Some of the follicles were of Graf-follicle size.

Where a SMILES comes first, the peptide text is derived from it. [ ]: non-standard residue; d: D form. pGlu = O=C1CC[C@@H](C(=O)O)N1

As for `CC(C)C[C@H](NC(=O)[C@@H](Cc1ccccc1)NC(=O)[C@H](Cc1ccc(O)cc1)NC(=O)[C@H](CO)NC(=O)[C@H](Cc1c[nH]c2ccccc12)NC(=O)[C@H](Cc1c[nH]cn1)NC(=O)[C@@H]1CCC(=O)N1)C(=O)N[C@@H](CCC(N)=O)C(=O)N1CCC[C@H]1C(=O)NCC(N)=O` [D-Phe^6, Gln^8 -GnRH analogue, D-Phe^6, Gln^8 -GnRH] ([pGlu]HWSY[dF]LQPG-NH2), in the series with infant female rats, the “animals that did not react to the treatment” value is listed as 4. Besides, the “ovulations and corpora haemorrhagica in each animal” value in the series on infant domestic rabbits is reported as 30-40. Further, the ovulations in the series with infant female pigs is 15-36. In addition, the “pregnancy during treatment (contraception)” value in the series with female lion (50 μg followed by 500 μg, every 3 weeks, April to August, regular copulation) is recorded as “did not become pregnant”. Besides, the “behaviour and appearance during treatment” value in the series on female lion (in vivo) is given as “showed no irregularity either in its behaviour or in its appearance”. Moreover, in the series on potential breeding sows (three i.m. injections at 24 h intervals, 20 μg), the “animals that rutted successfully within 26 days” value is on record as 21 animals. In addition, in the series on potential breeding sows (untreated control 10%), the “share of animals that rutted successfully within 26 days” value was 70%. In addition, the “black mutant chinchillas that gave birth within four months” value with barren chinchillas (3 animals barren >2 years, same treatment) was “all three animals gave birth to young ones”. The “chinchillas that gave birth within 4 months” value in the series on barren chinchillas (of twenty barren ≥2 years, 10 μg twice daily 3 days i.p., 75 μg on 4th day) was found to be 12. In series [1], the “corpora haemorrhagica on ovaries of both sides” value is 5-7.
